Results taken from patent US12599560B2, “Lipids and lipid nanoparticle formulations” (Longuide Biopharma Corporation, priority 2023, dated 2026).

Key:
[1] = Particle size and PDI by dynamic light scattering; format: physicochemical
Method: The 7.5 μL nucleic acid lipid nanoparticle solution (containing approximately 0.04 mg/mL mRNA) was taken and added with 200 μL ultrapure water, mixed by gentle blowing using a pipette tip, and the particle size of the nanopreparation was detected by dynamic lightscattering (DLS) using a Malvern Dynamic Light Scattering Instrument (Malvern Instruments Ltd., ZEN3700, UK). 27.5 μL nucleic acid lipid nanoparticle solution (containing about 0.04 mg/mL mRNA) was taken and added with 200 μL ultrapure water. A pipette tip was used to gently blow the sample and mix well. The particle size of the nanopreparation was detected by Malvern Dynamic Light Scattering Instrument (Malvern Instruments Ltd., ZEN3700, UK). After the detection, the sample was recovered to an EP tube, and 600 μL of ultrapure water was added, gently blown with a pipette tip, and the potential of the nanopreparation was measured by a Malvern particle size meter.

mice = assay: In vivo delivery of FLuc-mRNA lipid nanoparticle preparations in mice (IVIS imaging); design: In vivo IVIS / In vivo IVIS (liver) / In vivo IVIS (spleen): unit not given here
Method: 7. In Vivo Delivery of the Nucleic Acid Lipid Nanoparticle Preparations in Mice After the preparation was completed, the preparation was injected intramuscularly (mice rectus femoris muscle of the thigh) or intravenously (mice tail vein), with approximately 75 μL per mouse, for a total of 3 mice. After a certain time of injection, in vivo imaging (PerkinElmer, IVIS Lumina III) was performed. 10-15 minutes before imaging, 200 μL of 15 mg/mL D-Luciferin working solution was injected intraperitoneally, and the imaging analysis was performed using an in vivo imager.

[2] = Table 2, LNP formulation with mRNA, molar ratio 1.40:11.15:38.95:48.50, N/P 30
[3] = Table 2, polydispersity value, molar ratio 1.40:11.15:38.95:48.50, N/P 30
[4] = Table 2, IV, whole body scan, molar ratio DMG-PEG2000:DSPC:Chol:Lipid and N/P
[5] = Table 2, LNP formulation with mRNA
[6] = Table 4, molar ratio 1.40:11.15:38.95:48.50, N/P 28, IM formulation
[7] = Table 4, molar ratio 2.50:11.50:51.00:35.00, N/P 32, IV formulation

| SMILES | In vivo IVIS (mice; Table 2, IM, whole body scan) | In vivo IVIS (mice; [4]) | Particle size (nm) [1, 5] | PDI ([1]; Table 2, polydispersity value) | PDI ([1]; Table 4) | Particle size (nm) ([1]; Table 4) | In vivo IVIS (mice; Table 4, IM) | In vivo IVIS (mice; Table 4, IV) | other results |
| --- | --- | --- | --- | --- | --- | --- | --- | --- | --- |
| CCCCCCCCCCSSCCOC(=O)C(O)CN1CCN(CCN(CC(O)C(=O)OCCSSCCCCCCCCCC)CC(O)C(=O)OCCSSCCCCCCCCCC)CC1 (centres unmarked) [Compound L0185] | 2.52 × 10^7 | 2.72 × 10^6 |  |  |  |  |  |  | Particle size (nm) ([1]; Table 2, LNP formulation with mRNA, molar ratio 0.95:7.58:26.47:65.00, N/P 30): 94.35 ± 0.52 nm; Particle size (nm) [1, 2]: 84.46 ± 1.39 nm; PDI ([1]; Table 2, polydispersity value, molar ratio 0.95:7.58:26.47:65.00, N/P 30): 0.13 ± 0.02; PDI [1, 3]: 0.20 ± 0.00 |
| CCCCCCCCCCOC(=O)C(O)CN1CCN(CCN(CC(O)C(=O)OCCCCCCCCCC)CC(O)C(=O)OCCCCCCCCCC)CC1 (centres unmarked) [Compound L0182] | 3.25 × 10^7 | 4.99 × 10^6 |  |  |  |  |  |  | Particle size (nm) ([1]; Table 2, LNP formulation with mRNA, molar ratio 1.09:8.66:30.25:60.00, N/P 30): 89.38 ± 0.09 nm; Particle size (nm) [1, 2]: 83.26 ± 0.68 nm; PDI ([1]; Table 2, polydispersity value, molar ratio 1.09:8.66:30.25:60.00, N/P 30): 0.16 ± 0.01; PDI [1, 3]: 0.14 ± 0.01 |
| CCCCCCCCC(CCCCCC)C(=O)OCCCCCCOC(=O)C(O)CN(CCCN1CCN(CCCN(CC(O)C(=O)OCCCCCCOC(=O)C(CCCCCC)CCCCCCCC)CC(O)C(=O)OCCCCCCOC(=O)C(CCCCCC)CCCCCCCC)CC1)CC(O)C(=O)OCCCCCCOC(=O)C(CCCCCC)CCCCCCCC (centres unmarked) [Compound L0197] | 3.81 × 10^6 | 5.97 × 10^8 | 102.47 ± 0.25 nm | 0.13 ± 0.02 |  |  |  |  | In vivo IVIS (liver) (mice; Table 2, IV, liver): 2.34 × 10^6; In vivo IVIS (spleen) (mice; Table 2, IV, spleen): 7.26 × 10^7 |
| CCCCCCCCCCCCOC(=O)C(O)CN[C@H]1CC[C@@H](N(CC(O)C(=O)OCCCCCCCCCCCC)CC(O)C(=O)OCCCCCCCCCCCC)CC1 (some centres unmarked) [Compound L0212] |  |  |  |  | 0.18 ± 0.01 | 95.87 ± 0.24 nm | 1.40 × 10^7 | 1.38 × 10^8 |  |
| CCCC/C=C\CCOCOCCCCOC(=O)C(O)CN(CCN1CCN(CCN(CC(O)C(=O)OCCCCOCOCC/C=C\CCCC)CC(O)C(=O)OCCCCOCOCC/C=C\CCCC)CC1)CCN(CC(O)C(=O)OCCCCOCOCC/C=C\CCCC)CC(O)C(=O)OCCCCOCOCC/C=C\CCCC (centres unmarked) [Compound L0202] | 9.20 × 10^7 | 3.73 × 10^9 | 114.43 ± 0.96 nm | 0.07 ± 0.02 |  |  |  |  | in vivo delivery efficiency as compared to the benchmark compound SM102 (mice; certain formulations, Table 2): superior in vivo delivery efficiency |
| CCCCCCCCCCCCNC(=O)C(O)CN(CCCN1CCN(CCCN(CC(O)C(=O)NCCCCCCCCCCCC)CC(O)C(=O)NCCCCCCCCCCCC)CC1)CC(O)C(=O)NCCCCCCCCCCCC (centres unmarked) [Compound L0190] | 1.19 × 10^6 |  | 121.87 ± 2.71 nm | 0.20 ± 0.01 |  |  |  |  |  |
| CCCCCCCCCCNC(=O)C(O)CN(CC(O)C(=O)NCCCCCCCCCC)[C@H]1CC[C@H](N(CC(O)C(=O)NCCCCCCCCCC)CC(O)C(=O)NCCCCCCCCCC)CC1 (some centres unmarked) [Compound L0218] |  |  |  |  | 0.07 ± 0.02 | 109.43 ± 1.16 nm | 8.49 × 10^5 | 5.55 × 10^5 |  |
| CCCCCCCCCCNC(=O)C(O)CN(CCCN1CCN(CCCN(CC(O)C(=O)NCCCCCCCCCC)CC(O)C(=O)NCCCCCCCCCC)CC1)CC(O)C(=O)NCCCCCCCCCC (centres unmarked) [Compound L0189] | 2.16 × 10^6 | 3.12 × 10^7 |  |  |  |  |  |  | Particle size (nm) ([1]; Table 2, LNP formulation with mRNA, molar ratio 1.09:8.66:30.25:60.00, N/P 20): 106.80 ± 0.85 nm; Particle size (nm) ([1]; Table 2, LNP formulation with mRNA, molar ratio 1.40:11.15:38.95:48.50, N/P 10): 85.92 ± 0.69 nm; PDI ([1]; Table 2, polydispersity value, molar ratio 1.09:8.66:30.25:60.00, N/P 20): 0.06 ± 0.04; PDI ([1]; Table 2, polydispersity value, molar ratio 1.40:11.15:38.95:48.50, N/P 10): 0.07 ± 0.02 |
| CCCCCCCCCCCCOC(=O)C(O)CN1CCN(CCN(CC(O)C(=O)OCCCCCCCCCCCC)CC(O)C(=O)OCCCCCCCCCCCC)CC1 (centres unmarked) [Compound L0183] | 2.37 × 10^7 | 5.98 × 10^7 |  |  |  |  |  |  | Particle size (nm) ([1]; Table 2, LNP formulation with mRNA, molar ratio 1.40:11.15:38.95:48.50, N/P 24): 75.73 ± 0.33 nm; Particle size (nm) ([1]; Table 2, LNP formulation with mRNA, molar ratio 1.63:12.99:45.38:40.00, N/P 24): 94.49 ± 1.06 nm; PDI ([1]; Table 2, polydispersity value, molar ratio 1.40:11.15:38.95:48.50, N/P 24): 0.14 ± 0.01; PDI ([1]; Table 2, polydispersity value, molar ratio 1.63:12.99:45.38:40.00, N/P 24): 0.16 ± 0.01 |
| CCCCCCCCCCOC(=O)C(O)CN(Cc1ccc(CN(CC(O)C(=O)OCCCCCCCCCC)CC(O)C(=O)OCCCCCCCCCC)cc1)CC(O)C(=O)OCCCCCCCCCC (centres unmarked) [Compound L0211] |  |  |  |  | 0.22 ± 0.00 | 134.47 ± 2.72 nm | 1.37 × 10^5 | 1.36 × 10^5 |  |
| CCCCCCCCCCCCCCOC(=O)C(O)CN(CCCN1CCN(CCCN(CC(O)C(=O)OCCCCCCCCCCCCCC)CC(O)C(=O)OCCCCCCCCCCCCCC)CC1)CC(O)C(=O)OCCCCCCCCCCCCCC (centres unmarked) [Compound L0228] |  |  |  |  |  |  | 8.22 × 10^6 | 9.28 × 10^9 | PDI [1, 6]: 0.18 ± 0.01; Particle size (nm) [1, 6]: 140.50 ± 1.21 nm; PDI [1, 7]: 0.13 ± 0.01; Particle size (nm) [1, 7]: 120.07 ± 0.60 nm |
| CCCCCCCCCCNC(=O)C(O)CN(CCN1CCN(CCN(CC(O)C(=O)NCCCCCCCCCC)CC(O)C(=O)NCCCCCCCCCC)CC1)CCN(CC(O)C(=O)NCCCCCCCCCC)CC(O)C(=O)NCCCCCCCCCC (centres unmarked) [Compound L0198] | 9.58 × 10^6 | 4.61 × 10^7 | 90.47 ± 0.74 nm | 0.17 ± 0.01 |  |  |  |  |  |
| CCCCCCCCCCCCNC(=O)C(O)CN1CCN(CCN(CC(O)C(=O)NCCCCCCCCCCCC)CC(O)C(=O)NCCCCCCCCCCCC)CC1 (centres unmarked) [Compound L0181] | 3.37 × 10^6 |  | 71.39 ± 0.26 nm | 0.16 ± 0.02 |  |  |  |  |  |
| CCCCCCCCCCCCNC(=O)C(O)CN(CC(=O)NCCCN1CCN(CCCNC(=O)CN(CC(O)C(=O)NCCCCCCCCCCCC)CC(O)C(=O)NCCCCCCCCCCCC)CC1)CC(O)C(=O)NCCCCCCCCCCCC (centres unmarked) [Compound L0193] | 2.43 × 10^5 | 4.33 × 10^5 | 93.86 ± 0.59 nm | 0.11 ± 0.02 |  |  |  |  |  |
| CCCCCCCCCCNC(=O)C(O)CN(Cc1ccc(CN(CC(O)C(=O)NCCCCCCCCCC)CC(O)C(=O)NCCCCCCCCCC)cc1)CC(O)C(=O)NCCCCCCCCCC (centres unmarked) [Compound L0215] |  |  |  |  | 0.11 ± 0.01 | 119.27 ± 1.75 nm | 2.45 × 10^5 | 4.06 × 10^5 |  |
| CCCC/C=C\CCOCOCCCCOC(=O)C(O)CN1CCN(CCN(CC(O)C(=O)OCCCCOCOCC/C=C\CCCC)CC(O)C(=O)OCCCCOCOCC/C=C\CCCC)CC1 (centres unmarked) [Compound L0222] |  |  |  |  | 0.05 ± 0.01 | 133.83 ± 0.72 nm | 4.38 × 10^5 | 7.94 × 10^6 |  |
| CCCCCCCC/C=C\CCCCCCCCNC(=O)C(O)CN(CCCN1CCN(CCCN(CC(O)C(=O)NCCCCCCCC/C=C\CCCCCCCC)CC(O)C(=O)NCCCCCCCC/C=C\CCCCCCCC)CC1)CC(O)C(=O)NCCCCCCCC/C=C\CCCCCCCC (centres unmarked) [Compound L0229] |  |  |  |  | 0.10 ± 0.02 | 179.07 ± 0.38 nm | 5.61 × 10^6 | 2.46 × 10^8 |  |
| CCCC/C=C\CCOCOCCCCOC(=O)C(O)CN(CCCN1CCN(CCCN(CC(O)C(=O)OCCCCOCOCC/C=C\CCCC)CC(O)C(=O)OCCCCOCOCC/C=C\CCCC)CC1)CC(O)C(=O)OCCCCOCOCC/C=C\CCCC (centres unmarked) [Compound L0226] |  |  |  |  | 0.09 ± 0.03 | 115.53 ± 1.04 nm | 1.41 × 10^8 | 1.24 × 10^9 |  |
| CCCCCCCCCCNC(=O)C(O)CN1CCN(CCN(CC(O)C(=O)NCCCCCCCCCC)CC(O)C(=O)NCCCCCCCCCC)CC1 (centres unmarked) [Compound L0180] | 1.10 × 10^7 | 3.15 × 10^6 |  |  |  |  |  |  | Particle size (nm) ([1]; Table 2, LNP formulation with mRNA, molar ratio 1.09:8.66:30.25:60.00, N/P 21): 84.26 ± 0.81 nm; Particle size (nm) ([1]; Table 2, LNP formulation with mRNA, molar ratio 1.40:11.15:38.95:48.50, N/P 21): 86.34 ± 1.35 nm; PDI ([1]; Table 2, polydispersity value, molar ratio 1.09:8.66:30.25:60.00, N/P 21): 0.13 ± 0.01; PDI ([1]; Table 2, polydispersity value, molar ratio 1.40:11.15:38.95:48.50, N/P 21): 0.18 ± 0.01 |
